Measured values taken from article PMC4078991 (Nature, 2014).
Each block holds one compound with its values, some of them ahead of it.

Tests used:
apoptotic Jurkat cells [1] = experiment: Formation of apoptotic bodies from apoptotic Jurkat cells; assay type: cell-based; details: for formation of apoptotic bodies in Jurkat cells expressing PANX1 DN mutant: inhibitors of blebbing; for formation of apoptotic bodies: Jurkat cells, anti-Fas induced apoptosis
Escherichia coli = experiment: Bacterial growth assay; assay type: cell-based; details: 6h incubation, O.D. at 600 nm
PANX1 [2] = target: T1, PANX1 (Homo sapiens, UniProt Q96RD7); experiment: ATP release from apoptotic cells; assay type: cell-based; details: apoptotic Jurkat cells
T1 sequence (Q96RD7 1-379 limits assumed): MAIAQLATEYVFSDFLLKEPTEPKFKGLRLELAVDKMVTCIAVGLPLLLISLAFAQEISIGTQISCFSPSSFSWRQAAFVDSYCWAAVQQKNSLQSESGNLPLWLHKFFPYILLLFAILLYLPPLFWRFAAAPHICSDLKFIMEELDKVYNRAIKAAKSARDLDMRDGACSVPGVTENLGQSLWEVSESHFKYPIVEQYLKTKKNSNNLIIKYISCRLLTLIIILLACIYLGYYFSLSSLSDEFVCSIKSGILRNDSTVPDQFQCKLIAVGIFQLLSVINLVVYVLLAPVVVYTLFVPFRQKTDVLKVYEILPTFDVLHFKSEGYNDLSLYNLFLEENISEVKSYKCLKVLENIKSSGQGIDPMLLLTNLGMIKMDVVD

PANX1 [3] = target: T1, PANX1; experiment: TO-PRO-3 uptake by apoptotic Jurkat cells; assay type: cell-based; details: for inhibition of TO-PRO-3 uptake (PANX1-dependent dye uptake) by apoptotic cells: anti-Fas, compound present during apoptosis induction
connexin 43 (Cx43) = connexin 43 (Cx43) (Homo sapiens, UniProt P17302); experiment: Whole-cell patch-clamp of Cx43 current in HEK293T cells; assay type: cell-based; details: 20 μM
connexin 43 (Cx43), sequence (P17302 2-382 limits assumed, species assumed): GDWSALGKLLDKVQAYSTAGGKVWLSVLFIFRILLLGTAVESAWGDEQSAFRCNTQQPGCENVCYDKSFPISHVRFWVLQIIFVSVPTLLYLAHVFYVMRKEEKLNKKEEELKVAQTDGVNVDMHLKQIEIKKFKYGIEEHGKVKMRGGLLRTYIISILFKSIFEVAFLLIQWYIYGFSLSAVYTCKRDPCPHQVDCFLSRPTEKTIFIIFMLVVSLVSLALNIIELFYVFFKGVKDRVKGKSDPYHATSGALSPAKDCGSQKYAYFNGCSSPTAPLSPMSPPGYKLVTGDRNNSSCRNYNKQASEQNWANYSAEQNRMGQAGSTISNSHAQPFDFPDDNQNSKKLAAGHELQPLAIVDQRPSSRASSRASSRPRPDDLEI

caspase 3/7 = experiment: Caspase 3/7 activation in Jurkat cells undergoing apoptosis; assay type: cell-based; details: trovafloxacin 40 μM
[4] = cited from earlier work
mouse Panx2 = target: T2, mouse Panx2 (Mus musculus, UniProt Q6IMP4); experiment: Whole-cell patch-clamp of Panx2 current in HEK293T cells; assay type: cell-based; details: 20 μM
T2 sequence (Q6IMP4 1-677): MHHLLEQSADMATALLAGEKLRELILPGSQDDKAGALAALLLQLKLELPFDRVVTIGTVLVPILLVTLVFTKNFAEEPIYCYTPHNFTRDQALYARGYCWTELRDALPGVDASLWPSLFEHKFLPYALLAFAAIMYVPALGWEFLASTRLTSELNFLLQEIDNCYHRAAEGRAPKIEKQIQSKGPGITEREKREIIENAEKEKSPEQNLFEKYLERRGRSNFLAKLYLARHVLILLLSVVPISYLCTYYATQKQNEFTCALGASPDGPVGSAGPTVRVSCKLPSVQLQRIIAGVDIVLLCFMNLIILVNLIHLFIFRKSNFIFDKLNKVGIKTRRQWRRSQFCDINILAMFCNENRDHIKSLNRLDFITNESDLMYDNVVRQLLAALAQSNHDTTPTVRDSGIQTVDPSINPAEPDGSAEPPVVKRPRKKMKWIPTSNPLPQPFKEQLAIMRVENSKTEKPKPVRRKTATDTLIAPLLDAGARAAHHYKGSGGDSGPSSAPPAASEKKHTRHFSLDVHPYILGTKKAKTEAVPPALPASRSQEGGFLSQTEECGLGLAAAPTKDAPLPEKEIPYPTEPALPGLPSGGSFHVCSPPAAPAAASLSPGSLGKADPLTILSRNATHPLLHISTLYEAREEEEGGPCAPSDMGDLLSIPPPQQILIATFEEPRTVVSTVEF

apoptotic Jurkat cells [5] = experiment: Time-lapse microscopy of apoptotic cell morphology; assay type: cell-based; details: time-lapse imaging
apoptotic thymocytes = experiment: In vivo model of thymic apoptosis; design: species or system mouse; details: wild-type mice, administered with dexamethasone
PANX1 [6] = target: T1, PANX1; assay type: cell-based; details: Jurkat cells 2h anti-Fas, trovafloxacin 20 μM; for effect on outward current of apoptotic cells: at +80mV; for effect on inward current of apoptotic cells: at -50mV
[7] = cited from earlier work; remark: listed apart in the source
PANX1-GFP = experiment: Proteolytic cleavage of PANX1-GFP during apoptosis; assay type: cell-based; details: 500 μM
primary thymocytes = assay type: cell-based, mouse; details: 10 μM

Compound: C=C1[C@@H](C)[C@H]2[C@H](Cc3ccccc3)NC(=O)[C@]23[C@H](OC(C)=O)/C=C/[C@@](C)(O)C(=O)[C@@H](C)C/C=C/[C@H]3[C@@H]1O [cytochalasin D]
formation of apoptotic bodies in Jurkat cells expressing PANX1 DN mutant (apoptotic Jurkat cells [1]): reduce the formation of apoptotic bodies

Compound: O=C(O)c1cn(C2CC2)c2cc(N3CCNCC3)c(F)cc2c1=O [ciprofloxacin]
Escherichia coli growth (Escherichia coli): inhibit bacterial growth

inhibition of ATP release from apoptotic cells (PANX1 [2]): partially inhibited ATP release
Compound: NC1CCN(c2nc3c(cc2F)c(=O)c(C(=O)O)cn3-c2ccc(F)cc2F)C1 (centres unmarked) [tosulfoxacin, tosufloxacin]
formation of apoptotic bodies (apoptotic Jurkat cells [1]): promoted the formation of apoptotic bodies
inhibition of TO-PRO-3 uptake (PANX1-dependent dye uptake) by apoptotic cells (PANX1 [3]): partially inhibited ATP release and TO-PRO-3 uptake

inhibition of ATP release from apoptotic cells (PANX1 [2]): partially inhibited ATP release
Compound: CN1CCN(c2cc3c(cc2F)c(=O)c(C(=O)O)cn3-c2ccc(F)cc2)CC1 [difloxacin]
formation of apoptotic bodies (apoptotic Jurkat cells [1]): promoted the formation of apoptotic bodies
inhibition of TO-PRO-3 uptake (PANX1-dependent dye uptake) by apoptotic cells (PANX1 [3]): partially inhibited ATP release and TO-PRO-3 uptake

Compound: Cc1ccc2c(c1)C(=O)C1(O)CCN(c3ccccc3)C1=N2 (centres unmarked) [blebbistatin]
formation of apoptotic bodies in Jurkat cells expressing PANX1 DN mutant (apoptotic Jurkat cells [1]): reduce the formation of apoptotic bodies

inhibition of ATP release from apoptotic cells (PANX1 [2]): inhibited ATP release
inhibition of connexin 43 gap junction current (connexin 43 (Cx43)): did not inhibit
inhibition of PANX2 current (mouse Panx2): did not inhibit
effect on outward current of apoptotic cells (PANX1 [6]): minimal effect on outward current
effect on inward current of apoptotic cells (PANX1 [6]): rapidly inhibited the inward current
inhibition of TO-PRO-3 uptake (PANX1-dependent dye uptake) by apoptotic cells (PANX1 [3]): potent inhibitor of TO-PRO-3 uptake
TO-PRO-3 uptake after acute treatment of cells already undergoing apoptosis (PANX1 [3]; compound added post induction of apoptosis, 20 min): acutely blocked TO-PRO-3 uptake
Compound: N[C@@H]1[C@H]2CN(c3nc4c(cc3F)c(=O)c(C(=O)O)cn4-c3ccc(F)cc3F)C[C@@H]12 [trovafloxacin]
caspase 3/7 activation during apoptosis (caspase 3/7): did not inhibit caspase 3/7 activation
side effects linked to use in patients [4]: serious adverse side effects
formation of apoptotic bodies (apoptotic Jurkat cells [1]): promoted the formation of apoptotic bodies in a concentration-dependent manner
formation of apoptopodia (string-like structures) by apoptotic cells (apoptotic Jurkat cells [5]): produced long string-like structures
fragmentation of apoptotic thymocytes in vivo (SSC high particles) (apoptotic thymocytes): promoted the fragmentation of the apoptotic thymocytes
concentrations normally achieved in human plasma [7]: 2000 to 10000 nM
Escherichia coli growth (Escherichia coli): inhibit bacterial growth

effect on outward current of apoptotic cells (PANX1 [6]): blocked both inward and outward currents
effect on inward current of apoptotic cells (PANX1 [6]): blocked both inward and outward currents
Compound: CC1(C)[C@@H](OC(=O)CCC(=O)O)CC[C@]2(C)[C@H]3C(=O)C=C4[C@@H]5C[C@@](C)(C(=O)O)CC[C@]5(C)CC[C@@]4(C)[C@]3(C)CC[C@@H]12 [CBX, carbenoxolone]
proteolytic cleavage of PANX1-GFP during apoptosis (PANX1-GFP): not inhibited
formation of apoptotic bodies (apoptotic Jurkat cells [1]): promoted formation of apoptotic bodies
formation of apoptopodia (string-like structures) by apoptotic cells (apoptotic Jurkat cells [5]): produced long string-like structures

Compound: Cc1ccc(C(=O)Nc2ccc(S(=O)(=O)O)c3cc(S(=O)(=O)O)cc(S(=O)(=O)O)c23)cc1NC(=O)c1cccc(NC(=O)Nc2cccc(C(=O)Nc3cc(C(=O)Nc4ccc(S(=O)(=O)O)c5cc(S(=O)(=O)O)cc(S(=O)(=O)O)c45)ccc3C)c2)c1 [suramin]
formation of apoptotic bodies (apoptotic Jurkat cells [1]): did not enhance formation of apoptotic bodies

inhibition of TO-PRO-3 uptake (PANX1-dependent dye uptake) by apoptotic cells (PANX1 [3]): did not block PANX1-dependent dye uptake
Compound: C[C@H]1COc2c(N3CCN(C)CC3)c(F)cc3c(=O)c(C(=O)O)cn1c23 [levofloxacin]
Escherichia coli growth (Escherichia coli): inhibit bacterial growth

Compound: CCCN(CCC)S(=O)(=O)c1ccc(C(=O)O)cc1 [probenecid]
formation of apoptotic bodies (apoptotic Jurkat cells [1]): promoted formation of apoptotic bodies

Compound: C[C@@H](N)[C@H]1CC[C@H](C(=O)Nc2ccncc2)CC1 [Y-27632]
formation of apoptotic bodies in Jurkat cells expressing PANX1 DN mutant (apoptotic Jurkat cells [1]): reduce the formation of apoptotic bodies
enhanced formation of apoptotic bodies in apoptotic thymocytes from mice with PANX1 deficiency (primary thymocytes): blunted

Compound: apyrase
formation of apoptotic bodies (apoptotic Jurkat cells [1]): did not promote the formation of apoptotic bodies
